What was measured:
beta amyloid production = assay: Repressor Release Assay (RRA); assay type: cell-based; settings: for APPI % of Example #98: relative to Example 98
How it was run: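 CHO-K1 cells transiently co-transfected with pRSVO-luc and an APP-lacI construct, replated, then treated in duplicate for 36-48 h at 37 °C, 5% CO2. Compounds diluted in 25 mM Hepes, with Hepes/1% DMSO as diluent control. Luciferase read-out in relative light units; toxicity scored 1 non-toxic, 0 toxic.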

CHO-K1 cells = assay: Toxicity in RRA (loss of luciferase signal); settings: toxicity = loss of signal (<0.75 fold increase)
Description: The beta amyloid inhibitory activity of the compounds of the present invention was determined using the Repressor Release Assay (RRA).
“Fold Increase” refers to the amount of luciferase activity (measured in relative light units) over diluent control. “SEM” refers to the standard error of the mean for fold increase.

[1] = Conc 20 μg/ml, luciferase activity over diluent control, read-out: APPI Fold Increase
[2] = Conc 10 μg/ml, luciferase activity over diluent control, read-out: APPI Fold Increase
[3] = Conc 10 μg/ml, luciferase activity over diluent control

O=S(=O)(N[C@H](CO)CC1CCCCC1)c1ccccc1F [Example 115, N-[(1S)-2-cyclohexyl-1-(hydroxymethyl)ethyl]-2-fluorobenzenesulfonamide]
fold induction at 20 µg/mL (beta amyloid production; [1]): 1.8
(%)APPI Toxicity (CHO-K1 cells; Conc 20 μg/ml): 1 (1=non-toxic)

C=CCCC(O)[C@@H](NS(=O)(=O)c1ccc(F)cc1)[C@@H](C)CC (stereo partly drawn) [Example 141, 4-fluoro-N-{(1S)-2-hydroxy-1-[(1S)-1-methylpropyl]-5-hexenyl}benzenesulfonamide]
fold induction at 10 µg/mL (beta amyloid production; [2]): 1.79
(%)APPI Toxicity (CHO-K1 cells; Conc 10 μg/ml): 1 (1=non-toxic)

CC[C@H](C)[C@H](NS(=O)(=O)c1ccc(F)cc1)C(C)(C)O [Example 235, 4-fluoro-N-[(1S,2S)-1-(1-hydroxy-1-methylethyl)-2-methylbutyl]benzenesulfonamide]
fold induction at 10 µg/mL (beta amyloid production; [2]): 1.88
(%)APPI Toxicity (CHO-K1 cells; Conc 10 μg/ml): 1 (1=non-toxic)

C=CCCC(O)(CCC=C)[C@@H](NS(=O)(=O)c1ccc(Cl)cc1)[C@@H](C)CC [Example 233, N-{(1S)-2-(3-butenyl)-2-hydroxy-1-[(1S)-1-methylpropyl]-5-hexenyl}-4-chlorobenzenesulfonamide]
fold induction at 10 µg/mL (beta amyloid production; [2]): 6.67
(%)APPI Toxicity (CHO-K1 cells; Conc 10 μg/ml): 1 (1=non-toxic)

C=CCC(O)(CC=C)[C@@H](NS(=O)(=O)c1ccc(Cl)cc1)[C@@H](C)CC [Example 228, N-{(1S)-2-allyl-2-hydroxy-1-[(1S)-1-methylpropyl]-4-pentenyl}-4-chloro benzenesulfonamide]
APPI Fold Increase (beta amyloid production; [3]): 1.56 fold
APPI % of Example #98 (beta amyloid production; Conc 10 μg/ml): 71.57%
(%)APPI Toxicity (CHO-K1 cells; Conc 10 μg/ml): 1 (1=non-toxic)

CCCCCCC(O)(CCCCCC)[C@@H](NS(=O)(=O)c1ccccc1F)[C@@H](C)CC [Example 261, 2-fluoro-N-{(1S)-2-hexyl-2-hydroxy-1-[(18)-1-methylpropyl]octyl}benzenesulfonamide]
APPI Fold Increase (beta amyloid production; [3]): 3.5 fold
APPI % of Example #98 (beta amyloid production; Conc 10 μg/ml): 104.4%
(%)APPI Toxicity (CHO-K1 cells; Conc 10 μg/ml): 1 (1=non-toxic)

CC[C@H](C)[C@H](NS(=O)(=O)c1ccc(Cl)cc1)C(O)C(C)(C)C (stereo partly drawn) [Example 172, 4-chloro-N-{(1S)-2-hydroxy-3,3-dimethyl-1-[(1S)-1-methylpropyl]butyl}benzenesulfonamide]
fold induction at 10 µg/mL (beta amyloid production; [2]): 2.51
(%)APPI Toxicity (CHO-K1 cells; Conc 10 μg/ml): 1 (1=non-toxic)

CC(C)(C)[C@@H](CO)NS(=O)(=O)c1ccc(Cl)c(Cl)c1 [Example 30, 3,4-dichloro-N-[(1S)-1-(hydroxymethyl)-2,2-dimethylpropyl]benzenesulfonamide]
fold induction at 20 µg/mL (beta amyloid production; [1]): 2.1
(%)APPI Toxicity (CHO-K1 cells; Conc 20 μg/ml): 1 (1=non-toxic)

C=CCC(O)[C@@H](NS(=O)(=O)c1ccc(F)cc1)[C@@H](C)CC (stereo partly drawn) [Example 134, 4-fluoro-N-{(1S)-2-hydroxy-1-[(1S)-1-methylpropyl]-4-pentenyl}benzenesulfonamide]
fold induction at 3 µg/mL (beta amyloid production; Conc 3 μg/ml, luciferase activity over diluent control, read-out: APPI Fold Increase): 1.5
fold induction at 10 µg/mL (beta amyloid production; [2]): 3
(%)APPI Toxicity (CHO-K1 cells; Conc 3 μg/ml): 1 (1=non-toxic)
(%)APPI Toxicity (CHO-K1 cells; Conc 10 μg/ml): 1 (1=non-toxic)

O=S(=O)(NC1(CO)CC2CCC1C2)c1ccc(Br)cc1 (stereo not shown) [Example 121, 4-bromo-N-[2-(hydroxymethyl)bicyclo[2.2.1.]hept-2-yl]benzenesulfonamide]
APPI Fold Increase (beta amyloid production; Conc 20 μg/ml, luciferase activity over diluent control): 1.7 fold
APPI % of Example #98 (beta amyloid production; Conc 20 μg/ml): 45.1%
(%)APPI Toxicity (CHO-K1 cells; Conc 20 μg/ml): 1 (1=non-toxic)

CCCCC(O)[C@@H](NS(=O)(=O)c1cccc(Cl)c1)[C@@H](C)CC (stereo partly drawn) [Example 189, 3-chloro-N-{(1S)-2-hydroxy-1-[(1S)-1-methylpropyl]hexyl}benzenesulfonamide]
fold induction at 10 µg/mL (beta amyloid production; [2]): 1.51
(%)APPI Toxicity (CHO-K1 cells; Conc 10 μg/ml): 1 (1=non-toxic)

CC(C)[C@@H](CO)NS(=O)(=O)c1ccc(Cl)c(Cl)c1 [Example 27, 3,4-dichloro-N-[(1S)-1-(hydroxymethyl)-2-methylpropyl]benzenesulfonamide]
fold induction at 20 µg/mL (beta amyloid production; [1]): 2.2
(%)APPI Toxicity (CHO-K1 cells; Conc 20 μg/ml): 1 (1=non-toxic)

CC[C@H](C)[C@@H](CO)N(Cc1ccc(-c2ccccc2)cc1)S(=O)(=O)c1ccc(Cl)cc1 [Example 41, N-([1,1′-biphenyl]-4-ylmethyl)-4-chloro-N-[(1S,2S)-1-(hydroxymethyl)-2-methylbutyl]benzenesulfonamide]
fold induction at 20 µg/mL (beta amyloid production; [1]): 4.9
(%)APPI Toxicity (CHO-K1 cells; Conc 20 μg/ml): 1 (1=non-toxic)
